{"source": "patent US20140371262A1", "about": "“PREVENTIVE AND/OR THERAPEUTIC AGENT FOR THROMBOEMBOLISM IN THROMBOEMBOLISM PATIENT WITH SEVERE RENAL IMPAIRMENT” (Daiichi Sankyo Company, Limited, priority 2011, published 2014)", "key": {"[1]": {"assay": "Clinical pharmacological trial: pharmacokinetics after single-dose edoxaban 15 mg in individuals with renal functional impairment", "details": "for AUC(0-t) / concentration at 24 h / CL renal / Cmax / half-life / Tmax: human, in vivo, 15 mg; for AUC(0-t): AUC0-24h Geometric least squares mean; for AUC(0-t) / concentration at 24 h / CL renal / Cmax / half-life / Tmax / AUC0-24h Geometric least squares mean ratio to healthy adult / Cmax Geometric least squares mean ratio to healthy adult: single-dose 15 mg; for concentration at 24 h: C24h Geometric mean (plasma edoxaban concentration 24 hours after administration); for CL renal: CLR Geometric mean (renal clearance); for Cmax: Cmax Geometric least squares mean; for half-life: t1/2 Geometric least squares mean; for Tmax: tmax Least squares mean", "method": "Edoxaban was subjected to a clinical trial targeting individuals with renal functional impairment, in which edoxaban was studied for its pharmacokinetics in the individuals with renal functional impairment (Non-patent literature 4). In this clinical trial, 15 mg of edoxaban was administered at a single dose to each patient in five groups differing in the severity of renal functional impairment."}, "NVAF patients": {"system": "NVAF patients", "assay": "Late phase-II trial targeting NVAF patient in Japan (thromboembolic and bleeding events, 12 weeks)", "assay_type": "in vivo, human", "details": "12 weeks"}, "[2]": {"details": "healthy adult (CLCR > 80 mL/min)"}, "[3]": {"details": "mild renal impairment (50 ≦ CLCR ≦ 80 mL/min)"}, "[4]": {"details": "moderate renal impairment (30 ≦ CLCR < 50 mL/min)"}, "[5]": {"details": "severe renal impairment (CLCR < 30 mL/min, nondialyzed)"}, "[6]": {"details": "individuals with severe renal impairment"}, "[7]": {"details": "30 mg×1/day, 30 ≦ CLCR < 50 mL/min"}, "[8]": {"details": "30 mg×1/day, 50 ≦ CLCR ≦ 80 mL/min"}, "[9]": {"details": "45 mg×1/day, 30 ≦ CLCR < 50 mL/min"}, "[10]": {"details": "45 mg×1/day, 50 ≦ CLCR ≦ 80 mL/min"}, "[11]": {"details": "60 mg×1/day, 30 ≦ CLCR < 50 mL/min"}, "[12]": {"details": "60 mg×1/day, 50 ≦ CLCR ≦ 80 mL/min"}}, "data": [{"smiles": "CN1CCc2nc(C(=O)N[C@@H]3C[C@@H](C(=O)N(C)C)CC[C@@H]3NC(=O)C(=O)Nc3ccc(Cl)cn3)sc2C1", "note": "[edoxaban, N^1-(5-chloropyridin-2-yl)-N^2-((1S,2R,4S)-4-[(dimethylamino)carbonyl]-2-{[(5-methyl-4,5,6,7-tetrahydrothiazolo[5,4-c]pyridin-2-yl)carbonyl]amino}cyclohexyl)ethanediamide]", "values": [{"measurement": "AUC(0-t)", "setting": "[1]; [2]", "value": 440, "unit": "ng·h/mL"}, {"measurement": "AUC(0-t)", "setting": "[1]; [3]", "value": 569, "unit": "ng·h/mL"}, {"measurement": "AUC(0-t)", "setting": "[1]; [4]", "value": 726, "unit": "ng·h/mL"}, {"measurement": "AUC(0-t)", "setting": "[1]; peritoneal dialysis patient", "value": 770, "unit": "ng·h/mL"}, {"measurement": "AUC(0-t)", "setting": "[1]; [5]", "value": 661, "unit": "ng·h/mL"}, {"measurement": "concentration at 24 h", "setting": "[1]; [2]", "value": 2.34, "unit": "ng/mL"}, {"measurement": "concentration at 24 h", "setting": "[1]; [3]", "value": 3.44, "unit": "ng/mL"}, {"measurement": "concentration at 24 h", "setting": "[1]; [4]", "value": 5.9, "unit": "ng/mL"}, {"measurement": "concentration at 24 h", "setting": "[1]; peritoneal dialysis patient", "value": 8.24, "unit": "ng/mL"}, {"measurement": "concentration at 24 h", "setting": "[1]; [5]", "value": 6.88, "unit": "ng/mL"}, {"measurement": "CL renal", "setting": "[1]; [2]", "value": 197, "unit": "mL/min"}, {"measurement": "CL renal", "setting": "[1]; [3]", "value": 121, "unit": "mL/min"}, {"measurement": "CL renal", "setting": "[1]; [4]", "value": 67.4, "unit": "mL/min"}, {"measurement": "CL renal", "setting": "[1]; [5]", "value": 32.5, "unit": "mL/min"}, {"measurement": "Cmax", "setting": "[1]; [2]", "value": 88.8, "unit": "ng/mL"}, {"measurement": "Cmax", "setting": "[1]; [3]", "value": 104, "unit": "ng/mL"}, {"measurement": "Cmax", "setting": "[1]; [4]", "value": 113, "unit": "ng/mL"}, {"measurement": "Cmax", "setting": "[1]; peritoneal dialysis patient", "value": 83.8, "unit": "ng/mL"}, {"measurement": "Cmax", "setting": "[1]; [5]", "value": 83.6, "unit": "ng/mL"}, {"measurement": "half-life", "setting": "[1]; [2]", "value": 516, "unit": "min"}, {"measurement": "half-life", "setting": "[1]; [3]", "value": 489, "unit": "min"}, {"measurement": "half-life", "setting": "[1]; [4]", "value": 566, "unit": "min"}, {"measurement": "half-life", "setting": "[1]; peritoneal dialysis patient", "value": 732, "unit": "min"}, {"measurement": "half-life", "setting": "[1]; [5]", "value": 1010, "unit": "min"}, {"measurement": "Tmax", "setting": "[1]; [2]", "value": 1.5, "unit": "h"}, {"measurement": "Tmax", "setting": "[1]; [3]", "value": 1.88, "unit": "h"}, {"measurement": "Tmax", "setting": "[1]; [4]", "value": 1.38, "unit": "h"}, {"measurement": "Tmax", "setting": "[1]; peritoneal dialysis patient", "value": 2.37, "unit": "h"}, {"measurement": "Tmax", "setting": "[1]; [5]", "value": 1.7, "unit": "h"}, {"measurement": "Increase of C24 h compared with healthy adults", "setting": "[1]; individuals with moderate renal impairment", "value": 2.52, "unit": "times"}, {"measurement": "Degree of the rise in C24 h relative to healthy adults", "setting": "[1]; [6]", "value": "approximately 3 times"}, {"measurement": "Degree of the rise in C24 h relative to individuals with mild renal impairment", "setting": "[1]; [6]", "value": "approximately 2 times"}, {"measurement": "AUC0-24h Geometric least squares mean ratio to healthy adult", "setting": "[1]; [3]", "value": 1.29}, {"measurement": "Cmax Geometric least squares mean ratio to healthy adult", "setting": "[1]; [3]", "value": 1.17}, {"measurement": "AUC0-24h Geometric least squares mean ratio to healthy adult", "setting": "[1]; [4]", "value": 1.65}, {"measurement": "Cmax Geometric least squares mean ratio to healthy adult", "setting": "[1]; [4]", "value": 1.27}, {"measurement": "AUC0-24h Geometric least squares mean ratio to healthy adult", "setting": "[1]; peritoneal dialysis patient", "value": 1.75}, {"measurement": "Cmax Geometric least squares mean ratio to healthy adult", "setting": "[1]; peritoneal dialysis patient", "value": 0.944}, {"measurement": "AUC0-24h Geometric least squares mean ratio to healthy adult", "setting": "[1]; [5]", "value": 1.50}, {"measurement": "Cmax Geometric least squares mean ratio to healthy adult", "setting": "[1]; [5]", "value": 0.941}, {"measurement": "Bleeding event (major, clinically relevant non-major and minor in total), subjects with event/subjects", "setting": "NVAF patients; [7]", "value": "(3/15)"}, {"measurement": "Incidence of bleeding event (major, clinically relevant non-major and minor bleeding in total)", "setting": "NVAF patients; [7]", "value": 20.0, "unit": "%"}, {"measurement": "Incidence of major bleeding or clinically relevant non-major bleeding", "setting": "NVAF patients; [7]", "value": 6.7, "unit": "%"}, {"measurement": "Major bleeding or clinically relevant non-major bleeding, subjects with event/subjects", "setting": "NVAF patients; [7]", "value": "(1/15)"}, {"measurement": "Bleeding event (major, clinically relevant non-major and minor in total), subjects with event/subjects", "setting": "NVAF patients; [8]", "value": "(14/69)"}, {"measurement": "Incidence of bleeding event (major, clinically relevant non-major and minor bleeding in total)", "setting": "NVAF patients; [8]", "value": 20.3, "unit": "%"}, {"measurement": "Incidence of major bleeding or clinically relevant non-major bleeding", "setting": "NVAF patients; [8]", "value": 1.4, "unit": "%"}, {"measurement": "Major bleeding or clinically relevant non-major bleeding, subjects with event/subjects", "setting": "NVAF patients; [8]", "value": "(1/69)"}, {"measurement": "Bleeding event (major, clinically relevant non-major and minor in total), subjects with event/subjects", "setting": "NVAF patients; 30 mg×1/day, 80 < CLCR mL/min", "value": "(7/46)"}, {"measurement": "Incidence of bleeding event (major, clinically relevant non-major and minor bleeding in total)", "setting": "NVAF patients; 30 mg×1/day, 80 < CLCR mL/min", "value": 15.2, "unit": "%"}, {"measurement": "Incidence of major bleeding or clinically relevant non-major bleeding", "setting": "NVAF patients; 30 mg×1/day, 80 < CLCR mL/min", "value": 0, "unit": "%"}, {"measurement": "Major bleeding or clinically relevant non-major bleeding, subjects with event/subjects", "setting": "NVAF patients; 30 mg×1/day, 80 < CLCR mL/min", "value": "(0/46)"}, {"measurement": "Bleeding event (major, clinically relevant non-major and minor in total), subjects with event/subjects", "setting": "NVAF patients; [9]", "value": "(6/21)"}, {"measurement": "Incidence of bleeding event (major, clinically relevant non-major and minor bleeding in total)", "setting": "NVAF patients; [9]", "value": 28.6, "unit": "%"}, {"measurement": "Incidence of major bleeding or clinically relevant non-major bleeding", "setting": "NVAF patients; [9]", "value": 9.5, "unit": "%"}, {"measurement": "Major bleeding or clinically relevant non-major bleeding, subjects with event/subjects", "setting": "NVAF patients; [9]", "value": "(2/21)"}, {"measurement": "Bleeding event (major, clinically relevant non-major and minor in total), subjects with event/subjects", "setting": "NVAF patients; [10]", "value": "(19/72)"}, {"measurement": "Incidence of bleeding event (major, clinically relevant non-major and minor bleeding in total)", "setting": "NVAF patients; [10]", "value": 26.4, "unit": "%"}, {"measurement": "Incidence of major bleeding or clinically relevant non-major bleeding", "setting": "NVAF patients; [10]", "value": 4.2, "unit": "%"}, {"measurement": "Major bleeding or clinically relevant non-major bleeding, subjects with event/subjects", "setting": "NVAF patients; [10]", "value": "(3/72)"}, {"measurement": "Bleeding event (major, clinically relevant non-major and minor in total), subjects with event/subjects", "setting": "NVAF patients; 45 mg×1/day, 80 < CLCR mL/min", "value": "(5/41)"}, {"measurement": "Incidence of bleeding event (major, clinically relevant non-major and minor bleeding in total)", "setting": "NVAF patients; 45 mg×1/day, 80 < CLCR mL/min", "value": 12.2, "unit": "%"}, {"measurement": "Incidence of major bleeding or clinically relevant non-major bleeding", "setting": "NVAF patients; 45 mg×1/day, 80 < CLCR mL/min", "value": 4.9, "unit": "%"}, {"measurement": "Major bleeding or clinically relevant non-major bleeding, subjects with event/subjects", "setting": "NVAF patients; 45 mg×1/day, 80 < CLCR mL/min", "value": "(2/41)"}, {"measurement": "Bleeding event (major, clinically relevant non-major and minor in total), subjects with event/subjects", "setting": "NVAF patients; [11]", "value": "(4/15)"}, {"measurement": "Incidence of bleeding event (major, clinically relevant non-major and minor bleeding in total)", "setting": "NVAF patients; [11]", "value": 26.7, "unit": "%"}, {"measurement": "Incidence of major bleeding or clinically relevant non-major bleeding", "setting": "NVAF patients; [11]", "value": 0, "unit": "%"}, {"measurement": "Major bleeding or clinically relevant non-major bleeding, subjects with event/subjects", "setting": "NVAF patients; [11]", "value": "(0/15)"}, {"measurement": "Bleeding event (major, clinically relevant non-major and minor in total), subjects with event/subjects", "setting": "NVAF patients; [12]", "value": "(21/68)"}, {"measurement": "Incidence of bleeding event (major, clinically relevant non-major and minor bleeding in total)", "setting": "NVAF patients; [12]", "value": 30.9, "unit": "%"}, {"measurement": "Incidence of major bleeding or clinically relevant non-major bleeding", "setting": "NVAF patients; [12]", "value": 10.3, "unit": "%"}, {"measurement": "Major bleeding or clinically relevant non-major bleeding, subjects with event/subjects", "setting": "NVAF patients; [12]", "value": "(7/68)"}, {"measurement": "Bleeding event (major, clinically relevant non-major and minor in total), subjects with event/subjects", "setting": "NVAF patients; 60 mg×1/day, 80 < CLCR mL/min", "value": "(10/46)"}, {"measurement": "Incidence of bleeding event (major, clinically relevant non-major and minor bleeding in total)", "setting": "NVAF patients; 60 mg×1/day, 80 < CLCR mL/min", "value": 21.7, "unit": "%"}, {"measurement": "Incidence of major bleeding or clinically relevant non-major bleeding", "setting": "NVAF patients; 60 mg×1/day, 80 < CLCR mL/min", "value": 0, "unit": "%"}, {"measurement": "Major bleeding or clinically relevant non-major bleeding, subjects with event/subjects", "setting": "NVAF patients; 60 mg×1/day, 80 < CLCR mL/min", "value": "(0/46)"}, {"measurement": "Bleeding event (major, clinically relevant non-major and minor in total), subjects with event/subjects", "setting": "NVAF patients; 60 mg×1/day, CLCR < 30 mL/min", "value": "(1/1)"}]}]}
